One may read the IC50 as the point on the concentration scale where inhibition reaches its midpoint. Higher therefore signals lower potency. By Kd is commonly meant the equilibrium constant for the complex coming apart.

The target in assay [1] is T1, human DLK (Homo sapiens, UniProt Q12852).
T1 sequence (Q12852 1-859): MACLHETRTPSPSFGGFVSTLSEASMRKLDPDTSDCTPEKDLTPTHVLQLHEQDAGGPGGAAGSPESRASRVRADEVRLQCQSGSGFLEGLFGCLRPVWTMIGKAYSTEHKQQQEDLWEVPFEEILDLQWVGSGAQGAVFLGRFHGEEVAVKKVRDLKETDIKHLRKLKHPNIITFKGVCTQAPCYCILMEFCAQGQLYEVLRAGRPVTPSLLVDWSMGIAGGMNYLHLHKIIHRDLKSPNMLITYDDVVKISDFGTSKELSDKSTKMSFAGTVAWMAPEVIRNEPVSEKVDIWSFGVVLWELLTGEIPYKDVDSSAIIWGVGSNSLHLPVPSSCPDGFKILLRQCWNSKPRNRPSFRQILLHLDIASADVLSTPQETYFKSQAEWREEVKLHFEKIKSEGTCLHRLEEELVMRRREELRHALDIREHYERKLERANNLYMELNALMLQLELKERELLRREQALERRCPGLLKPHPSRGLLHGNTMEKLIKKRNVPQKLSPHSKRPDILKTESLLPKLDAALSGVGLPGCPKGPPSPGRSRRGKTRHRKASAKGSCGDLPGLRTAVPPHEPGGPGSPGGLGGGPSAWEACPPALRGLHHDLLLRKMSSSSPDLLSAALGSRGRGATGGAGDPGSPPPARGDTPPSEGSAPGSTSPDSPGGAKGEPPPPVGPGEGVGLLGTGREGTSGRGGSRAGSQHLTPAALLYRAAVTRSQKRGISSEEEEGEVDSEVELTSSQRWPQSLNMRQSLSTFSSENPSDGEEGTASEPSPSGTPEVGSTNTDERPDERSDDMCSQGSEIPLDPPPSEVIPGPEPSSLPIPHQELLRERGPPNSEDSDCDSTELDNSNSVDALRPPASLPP
Put plainly: Phospho-cJun Cellular Assay. In kind it is cell-based. The conditions noted are these: HEK293 cells stably transfected with Dox-inducible human DLK; p-cJun (Ser63); 5 h compound incubation. More on the design: expressed in transfected cells. In short, it runs like this: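 HEK293 cells with doxycycline-induced human DLK (induced 20 h; uninduced cells as negative control) treated with compound for 5 h at 37 °C. Phospho-cJun (Ser63) measured in lysates with detection-antibody kit; IC50 from variable-slope dose-response fit.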

For assay [2], the target named is T1, human DLK. Description: DLK Kd Determinations (KINOMEscan KdELECT, DiscoveRx). More on the design: full length of human DLK (amino acids 1-859); host or cells: transiently transfected HEK293 cells; unpurified extract. The following applies: fusion protein of full length human DLK (amino acids 1-859) and NFkB DNA binding domain; qPCR readout; duplicate. The procedure, abridged: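 Competition binding of full-length human DLK (aa 1-859)-NFkB DBD fusion, DNA-tagged, from HEK293 extracts against an immobilized ligand; 1 h at room temperature, 0.9% DMSO. Bead-bound kinase was quantified by qPCR. Kd came from an 11-point 3-fold series (top 30,000 nM), in duplicate, with Hill slope fixed at −1.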
In general terms: Quantitative PCR measures a nucleic acid by following its amplification.

Molecule `CN1CCN(C2CC3C(C2)C3n2cc(-c3cnc(N)c(OC(F)F)c3)nc2C2CC2)CC1` (centres unmarked) [Example 137, 5-(2-cyclopropyl-1-(3-(4-methylpiperazin-1-yl)bicyclo[3.1.0]hexan-6-yl)-1H-imidazol-4-yl)-3-(difluoromethoxy)pyridin-2-amine] displayed an IC50 in assay [1] of 710 nM. Also, binding in assay [2] was put at a Kd of 22 nM.

`CC(C)c1nc(-c2cnc(N)c(C(F)(F)F)c2)cn1[C@H]1[C@@H]2CC(O)C[C@@H]21` (single isomer, unassigned) [Example 48a, 6-(4-(6-amino-5-(trifluoromethyl)pyridin-3-yl)-2-isopropyl-1H-imidazol-1-yl)bicyclo[3.1.0]hexan-3-ol] displayed an IC50 in assay [1] of 1590 nM. Further, binding in assay [2] was put at a Kd of 84 nM.

Molecule `CC(C)c1nc(-c2cnc(N)c(OC(F)(F)F)c2)cn1[C@H]1C[C@H](N2CCOCC2)C1` [Example 43, 5-(2-isopropyl-1-((1r,3r)-3-morpholinocyclobutyl)-1H-imidazol-4-yl)-3-(trifluoromethoxy)pyridin-2-amine] registered an IC50 in assay [1] of 804 nM. This molecule also registered a dissociation constant (Kd) in assay [2] of 120 nM.

Take `Nc1ncc(-c2cn([C@H]3[C@@H]4CNC[C@@H]43)c(C3CC3)n2)cc1OC(F)(F)F` [Example 53, 5-(1-((1R,5S,6s)-3-azabicyclo[3.1.0]hexan-6-yl)-2-cyclopropyl-1H-imidazol-4-yl)-3-(trifluoromethoxy)pyridin-2-amine]: in assay [1], the IC50 came out at 802 nM. The same molecule displayed a Kd in assay [2] of 57 nM.

`Nc1ncc(-c2cn([C@H]3[C@@H]4CC(N5CCOCC5)C[C@@H]43)c(C3CC3)n2)cc1C(F)(F)F` (single isomer, unassigned) [Example 128a, 5-(2-cyclopropyl-1-(3-morpholinobicyclo[3.1.0]hexan-6-yl)-1H-imidazol-4-yl)-3-(trifluoromethyl)pyridin-2-amine] returned an IC50 in assay [1] of 748 nM. Besides, the Kd in assay [2] came out at 40 nM.

`CC1COCCN1C1CC2C(C1)C2n1cc(-c2cnc(N)c(OC(F)(F)F)c2)nc1C1CC1` (centres unmarked) [Example 147, 5-(2-cyclopropyl-1-(3-(3-methylmorpholino)bicyclo[3.1.0]hexan-6-yl)-1H-imidazol-4-yl)-3-(trifluoromethoxy)pyridin-2-amine] gave a 50% inhibitory concentration (IC50) in assay [1] of 893 nM. In assay [2], this molecule yielded an equilibrium dissociation constant (Kd) of 23 nM.

Take `CC(C)c1nc(-c2cnc(N)c(OC(F)(F)F)c2)cn1[C@H]1[C@@H]2CC(N3CCOCC3)C[C@@H]21` (single isomer, unassigned) [Example 19b]: half-maximal inhibition in assay [1] (IC50) was put at 493 nM. The Kd in assay [2] came to 38 nM.

`Nc1ncc(-c2cn([C@H]3[C@@H]4CC(N5CCN(CCF)CC5)C[C@@H]43)c(C3CC3)n2)cc1OC(F)(F)F` (single isomer, unassigned) [Example 154a, 5-(2-cyclopropyl-1-(3-(4-(2-fluoroethyl)piperazin-1-yl)bicyclo[3.1.0]hexan-6-yl)-1H-imidazol-4-yl)-3-(trifluoromethoxy)pyridin-2-amine] displayed a concentration for half-maximal inhibition (IC50) in assay [1] of 761 nM. The molecule further came in with an equilibrium dissociation constant (Kd) in assay [2] of 28 nM.

`CC(C)c1nc(-c2cnc(N)c(OC(F)F)c2)cn1[C@H]1[C@@H]2CC(N3CCN(C)CC3)C[C@@H]21` (single isomer, unassigned) [Example 145a, 3-(difluoromethoxy)-5-(2-isopropyl-1-(3-(4-methylpiperazin-1-yl)bicyclo[3.1.0]hexan-6-yl)-1H-imidazol-4-yl)pyridin-2-amine] registered an IC50 in assay [1] of 1200 nM. Also, the affinity in assay [2], expressed as Kd, was 39 nM.

As for `CC(C)c1nc(-c2cnc(N)c(C(F)(F)F)c2)cn1[C@H]1[C@@H]2CC(N3CCN(CCF)CC3)C[C@@H]21` (single isomer, unassigned) [Example 155a, 5-(1-(3-(4-(2-fluoroethyl)piperazin-1-yl)bicyclo[3.1.0]hexan-6-yl)-2-isopropyl-1H-imidazol-4-yl)-3-(trifluoromethyl)pyridin-2-amine], the midpoint of inhibition in assay [1], the IC50, lay at 1190 nM. In assay [2], this molecule displayed a Kd of 23 nM.

(Values after patent US20180057507A1, “INHIBITORS OF DUAL LEUCINE ZIPPER (DLK) KINASE FOR THE TREATMENT OF DISEASE” (Board of Regents, The University of Texas System, priority 2016, published 2018).)
